The text below walks through data of patent US20250195530A1, “POLQ INHIBITORS” (ASTRAZENECA AB, priority 2022, published 2025).

Read-outs that look alike come from different tables or passages of the source.

In experiment [1] the test system is DLD-1 BRCA2−/− cells. The experiment in a line: Homologous recombination synthetic lethal inhibition of proliferation, DLD-1 BRCA2-/- (Cell Titre Glo 3D). Format: cell-based. To be noted: for IC50: Homo sapiens. In short, it runs like this:
(§1)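 Cells are seeded in RPMI 1640 (phenol red free, 10% FBS, GlutaMAX) onto pre-dosed compound (10 μM to 0.51 nM, three-fold). Plates are incubated at 37 °C, and medium plus compound are refreshed on day 6. Viability is read by CellTiter-Glo 3D at day 7 (DLD-1) or day 12 (DLD-1 BRCA2−/−), and the IC50 is fitted.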

The test system of experiment [2] is DLD-1 cells. Briefly: Inhibition of proliferation, DLD-1 BRCA2 wt control (Cell Titre Glo 3D). To be noted: for IC50: Homo sapiens. Format: cell-based. In short, it runs like this:
as §1

The mark [3] stands for this setting: DLD-1, 288 h, DLD-1 BRCA2−/− cells, 12 days, read-out: POLQ PD Prolif Lumin BRCA2 −/− mean pIC50 (converted).
Where [4] appears, read: DLD-1, 168 h, DLD-1 BRCA2 wt cells, 7 days, read-out: POLQ PD Prolif Lumin DLD1 mean pIC50 (converted).
The mark [5] stands for this setting: DLD-1, first proliferation column (c5), DLD-1 BRCA2-/-, read-out: POLQ PD Prolif Lumin (converted).
The mark [6] stands for this setting: DLD-1, second proliferation column (c6), DLD-1 BRCA2 wt control, read-out: POLQ PD Prolif Lumin (converted).
Where [7] appears, read: DLD-1, first proliferation column (c5), taken as DLD-1 BRCA2-/-, read-out: POLQ PD Prolif Lumin (converted).
[8] abbreviates: DLD-1, second proliferation column (c6), taken as DLD-1 BRCA2 wt, read-out: POLQ PD Prolif Lumin (converted).
[9] abbreviates: DLD-1, proliferation, luminescence, taken as DLD-1 BRCA2-/-, read-out: POLQ PD Prolif Lumin (converted).
Setting [10] is: DLD-1, proliferation, luminescence, second Prolif column (c6), taken as DLD-1 BRCA2 wt control, read-out: POLQ PD Prolif Lumin (converted).
[11] abbreviates: DLD-1, 288 h, DLD-1 BRCA2−/−, 12 days, Cell Titre Glo 3D, read-out: POLQ PD Prolif Lumin BRCA2 −/− Mean pIC50 (converted).
The mark [12] stands for this setting: DLD-1, 168 h, DLD-1 (BRCA2 wt control), 7 days, Cell Titre Glo 3D, read-out: POLQ PD Prolif Lumin DLD1 Mean pIC50 (converted).
Where [13] appears, read: DLD-1, DLD-1 BRCA2 −/−, mean, read-out: POLQ PD Prolif Lumin BRCA2 −/− mean pIC50 (converted).
Where [14] appears, read: DLD-1, DLD1 BRCA2 wt, mean, read-out: POLQ PD Prolif Lumin DLD1 mean pIC50 (converted).
[15] abbreviates: DLD-1, DLD-1 BRCA2-/- proliferation, column head only partly shown, read-out: POLQ PD Prolif Lumin (converted).
Setting [16] is: DLD-1, DLD-1 BRCA2 wt control proliferation, column head only partly shown, read-out: POLQ PD Prolif Lumin (converted).

In the case of `CC1(Oc2ncnc3c2nc(-c2ccc(OCCN4CCNCC4=O)cc2Cl)n3Cc2ccccc2)CC1` [Example M5, 1-(2-(4-(9-benzyl-6-(1-methylcyclopropoxy)-9H-purin-8-yl)-3-chlorophenoxy)ethyl)piperazin-2-one], the IC50 in experiment [1] (setting [3]) was 100 nM; in experiment [2] (setting [4]), over 10000 nM.

`CC1(Oc2ncnc3c2nc(-c2ccc(OCCN4CC5CC(C4)N5)cc2Cl)n3Cc2ccccc2)CC1` [Example R5, 3-(2-(4-(9-benzyl-6-(1-methylcyclopropoxy)-9H-purin-8-yl)-3-chlorophenoxy)ethyl)-3,6-diazabicyclo[3.1.1]heptane]: the IC50 is 100 nM in experiment [1] (setting [3]) and 3980 nM in experiment [2] (setting [4]).

Take `Cc1ccnc(Cn2c(-c3ccc(CC(=O)N4CC5CC(C4)N5)cc3Cl)nc3c(OC4(C)CC4)ncnc32)c1` [Example T555, 1-(3,6-diazabicyclo[3.1.1]heptan-3-yl)-2-(3-chloro-4-(6-(1-methylcyclopropoxy)-9-((4-methylpyridin-2-yl)methyl)-9H-purin-8-yl)phenyl)ethan-1-one]: the IC50 in experiment [1] (setting [5]) was over 7940 nM; in experiment [2] (setting [6]), over 10000 nM.

As for `CC1(Oc2ncnc3c2nc(-c2ccc(OCCCN4CC[C@@H](O)C4)cc2Cl)n3Cc2cc(C(F)F)ccn2)CC1` [Example T568, (R)-1-(3-(3-chloro-4-(9-((4-(difluoromethyl)pyridin-2-yl)methyl)-6-(1-methylcyclopropoxy)-9H-purin-8-yl)phenoxy)propyl)pyrrolidin-3-ol], the IC50 in experiment [1] (setting [5]) was 794 nM; in experiment [2] (setting [6]), over 10000 nM.

In the case of `Cc1cnc(Cn2c(-c3ccc(OCCCN4CCCC4)cc3Cl)nc3c(OC4(C)CC4)ncnc32)s1` [Example T388, 2-((8-(2-chloro-4-(3-(pyrrolidin-1-yl)propoxy)phenyl)-6-(1-methylcyclopropoxy)-9H-purin-9-yl)methyl)-5-methylthiazole], the IC50 in experiment [1] (setting [7]) was 251 nM; in experiment [2] (setting [8]), over 10000 nM.

As for `C[C@H](CCOc1ccc(-c2nc3c(OC4(C)CC4)ncnc3n2Cc2cccc(C#N)c2)c(Cl)c1)C(=O)O` [Example T401, (R)-4-(3-chloro-4-(9-(3-cyanobenzyl)-6-(1-methylcyclopropoxy)-9H-purin-8-yl)phenoxy)-2-methylbutanoic acid], the IC50 in experiment [1] (setting [9]) was 398 nM; in experiment [2] (setting [10]) it was over 10000 nM.

Turning to `CC1(Oc2ncnc3c2nc(-c2ccc(CN4CCNCC4)cc2Cl)n3Cc2ccccc2)CC1` [Example N6, 9-benzyl-8-(2-chloro-4-(piperazin-1-ylmethyl)phenyl)-6-(1-methylcyclopropoxy)-9H-purine], the IC50 in experiment [1] (setting [3]) was 100 nM; in experiment [2] (setting [4]) it was 3980 nM.

For `CC1(Oc2ncnc3c2nc(-c2ccc(N4CCNC(=O)C4)cc2Cl)n3Cc2ccccc2)CC1` [Example M3, 4-(4-(9-benzyl-6-(1-methylcyclopropoxy)-9H-purin-8-yl)-3-chlorophenyl)piperazin-2-one], the IC50 is 501 nM in experiment [1] (setting [3]) and 7940 nM in experiment [2] (setting [4]).

`COc1ccc(Cl)cc1Cn1c(-c2ccc(OCC[C@H](C)C(=O)O)cc2Cl)nc2c(OC3(C)CC3)ncnc21` [Example 48, (S)-4-(3-chloro-4-(9-(5-chloro-2-methoxybenzyl)-6-(1-methylcyclopropoxy)-9H-purin-8-yl)phenoxy)-2-methylbutanoic acid]: the IC50 in experiment [1] (setting [11]) was 39.8 nM; in experiment [2] (setting [12]) it was over 10000 nM.

`COc1ccc(F)cc1Cn1c(-c2ccc(OCCC(C)C(=O)O)cc2Cl)nc2c(OC3(C)CC3)ncnc21` (racemic) [Example U2, 4-(3-chloro-4-(9-(5-fluoro-2-methoxybenzyl)-6-(1-methylcyclopropoxy)-9H-purin-8-yl)phenoxy)-2-methylbutanoic acid]: the IC50 is 63.1 nM in experiment [1] (setting [13]) and over 10000 nM in experiment [2] (setting [14]).

`CC1(Oc2ncnc3c2nc(-c2ccc(N4CC(N)C4)cc2Cl)n3Cc2ccccc2)CC1` [Example M1, 1-(4-(9-benzyl-6-(1-methylcyclopropoxy)-9H-purin-8-yl)-3-chlorophenyl)azetidin-3-amine]: the results for the IC50 in experiment [1] (setting [3]) and in experiment [2] (setting [4]) were 501 nM and over 10000 nM, respectively.

As for `CC(CCOc1ccc(-c2nc3c(OC4(C)CC4)ncnc3n2Cc2c(F)cccc2C#N)c(Cl)c1)C(=O)O` (racemic) [Example U13, 4-(3-chloro-4-(9-(2-cyano-6-fluorobenzyl)-6-(1-methylcyclopropoxy)-9H-purin-8-yl)phenoxy)-2-methylbutanoic acid], the IC50 in experiment [1] (setting [13]) is 3160 nM; in experiment [2] (setting [14]), over 10000 nM.

`Cc1ccnc(Cn2c(-c3ccc(C(=O)N4CCNCC4)cc3Cl)nc3c(OC4(C)CC4)ncnc32)c1` [Example T337, (3-chloro-4-(6-(1-methylcyclopropoxy)-9-((4-methylpyridin-2-yl)methyl)-9H-purin-8-yl)phenyl)(piperazin-1-yl)methanone]: the values for the IC50 in experiment [1] (setting [7]) and in experiment [2] (setting [8]) were 5010 nM and over 10000 nM, respectively.

As for `COc1ccc(Cl)cc1Cn1c(-c2ccc(O[C@H]3CC[C@H](C(=O)O)CC3)cc2Cl)nc2c(OC3(C)CC3)ncnc21` [Example U43, (1r,4r)-4-(3-chloro-4-(9-(5-chloro-2-methoxybenzyl)-6-(1-methylcyclopropoxy)-9H-purin-8-yl)phenoxy)cyclohexane-1-carboxylic acid], the “POLQ PD Prolif Lumin BRCA2 −/− mean pIC50” value in experiment [1] (DLD-1 BRCA2 −/−, mean) was 7.2. Besides, the “POLQ PD Prolif Lumin DLD1 mean pIC50” value in experiment [2] (DLD1 BRCA2 wt, mean) is recorded as under 5.0.

As to `Cc1ccnc(Cn2c(-c3ccc(O[C@H]4CCNC4)cc3Cl)nc3c(OC4(C)CC4)ncnc32)c1` [Example T208, (S)-8-(2-chloro-4-(pyrrolidin-3-yloxy)phenyl)-6-(1-methylcyclopropoxy)-9-((4-methylpyridin-2-yl)methyl)-9H-purine], the IC50 is 501 nM in experiment [1] (setting [15]) and over 10000 nM in experiment [2] (setting [16]).

`C[C@H](CCOc1ccc(-c2nc3c(OC4(C)CC4)ncnc3n2Cc2cccc(Cl)c2)c(Cl)c1)C(=O)O` (single isomer, unassigned; isomer 1) [Example 34, 4-(3-Chloro-4-(9-(3-chlorobenzyl)-6-(1-methylcyclopropoxy)-9H-purin-8-yl)phenoxy)-2-methylbutanoic acid (Isomer 1)]: the results for the IC50 in experiment [1] (setting [11]) and in experiment [2] (setting [12]) were 200 nM and over 10000 nM, respectively.

Turning to `Cc1cc(O[C@H]2CCNC2)ncc1-c1nc2c(OC3(C)CC3)ncnc2n1Cc1ccccc1` [Example G11, (S)-9-benzyl-8-(4-methyl-6-(pyrrolidin-3-yloxy)pyridin-3-yl)-6-(1-methylcyclopropoxy)-9H-purine], the results for the IC50 in experiment [1] (setting [3]) and in experiment [2] (setting [4]) were 1260 nM and 6310 nM, respectively.

With `CC1(Oc2cccc3c2nc(-c2ccc(OCCN4CCNCC4)cc2Cl)n3Cc2ccccc2)CCC1` [Example P2, 1-benzyl-2-(2-chloro-4-(2-(piperazin-1-yl)ethoxy)phenyl)-4-(1-methylcyclobutoxy)-1H-benzo[d]imidazole], the IC50 was 794 nM in experiment [1] (setting [3]) and 2510 nM in experiment [2] (setting [4]).

On to `Cc1ccnc(Cn2c(-c3ccc(C(=O)N4CCC4)cc3Cl)nc3c(OC4(C)CC4)ncnc32)c1` [Example T169, azetidin-1-yl(3-chloro-4-(6-(1-methylcyclopropoxy)-9-((4-methylpyridin-2-yl)methyl)-9H-purin-8-yl)phenyl)methanone], for which the IC50 in experiment [1] (setting [5]) is 631 nM; in experiment [2] (setting [6]), 10000 nM.

Take `Cc1ccnc(Cn2c(-c3ccc(CN4CCC(O)CC4)cc3Cl)nc3c(OC4(C)CC4)ncnc32)c1` [Example T508, 1-(3-chloro-4-(6-(1-methylcyclopropoxy)-9-((4-methylpyridin-2-yl)methyl)-9H-purin-8-yl)benzyl)piperidin-4-ol]: the IC50 is 316 nM in experiment [1] (setting [5]) and over 10000 nM in experiment [2] (setting [6]).

For `CC1(Oc2ncnc3c2nc(-c2ccc(OCCCN4CC(O)C4)cc2Cl)n3Cc2cc(C(F)(F)F)ccn2)CC1` [Example T425, 1-(3-(3-chloro-4-(6-(1-methylcyclopropoxy)-9-((4-(trifluoromethyl)pyridin-2-yl)methyl)-9H-purin-8-yl)phenoxy)propyl)azetidin-3-ol], the IC50 in experiment [1] (setting [9]) is 501 nM; in experiment [2] (setting [10]), over 10000 nM.

With `CC(CCOc1ccc(-c2nc3c(OC4(C)CC4)ncnc3n2Cc2c(Cl)cccc2Br)c(Cl)c1)C(=O)O` (racemic) [Example T259, 4-(4-(9-(2-bromo-6-chlorobenzyl)-6-(1-methylcyclopropoxy)-9H-purin-8-yl)-3-chlorophenoxy)-2-methylbutanoic acid], the IC50 in experiment [1] (setting [15]) is 3160 nM; in experiment [2] (setting [16]), over 10000 nM.
